Calls of active or inactive are those of the source. How the calls were made is not given here.
Assay: cytotoxicity of DAGLb inhibitor compounds, dose response, cytotoxicity control for DAGLb inhibitor project, cell-based, absorbance, serum and serum-free conditions (AID 602337)
Conditions: mammalian cell viability, absorbance readout

SMILES | CC50 (with serum) | CC50 (without serum)
O=C(N1CCCCC1Cc1ccccc1)n1cc(-c2ccc(-c3ccccc3)cc2)nn1 (stereo not drawn) | 4.2 µM | > 100 µM (inactive)
O=C(N1CCCCC1c1ccccc1)n1cc(-c2ccc(-c3ccccc3)cc2)nn1 (stereo not drawn) | > 50 µM (inactive) | > 100 µM (inactive)
COc1ccc(-c2ccc(-c3cn(C(=O)N4CCCCC4c4ccccc4)nn3)cc2)cc1 (stereo not drawn) | 5.9 µM | > 100 µM (inactive)
COc1ccccc1-c1ccc(-c2cn(C(=O)N3CCCCC3Cc3ccccc3)nn2)cc1 (stereo not drawn) | 3.1 µM | > 100 µM (inactive)

Source: PubChem BioAssay AID602337 (The Scripps Research Institute Molecular Screening Center, 2012)
